Like-named read-outs stand apart in the source and are kept apart here.

The target in one experiment is TPP riboswitch RNA. The experiment is described as follows: Isothermal titration calorimetry (ITC) binding to TPP riboswitch RNA. The conditions noted are these: for binding cooperativity with 2: ITC with and without pre-bound 2.
The subject of experiment [1] is TPP riboswitch region of the screening construct. The experiment in a line: SHAPE / SHAPE-MaP fragment screening and replicate hit validation. In kind it is binding. The conditions noted are these: RNA pre-bound to primary fragment, fragment 1 mM, 5NIA reagent. How it is done: Fragments were obtained as a fragment screening library from Maybridge, which was a subset of their Ro3 diversity fragment library and contained 1500 compounds dissolved in DMSO at 50 mM. Most of these compounds adhere to the “rule of three” for fragment compounds; having a molecular mass <300 Da, containing ≤3 hydrogen bond donors and ≤3 hydrogen bond acceptors, and ClogP ≤3.0. All compounds used for ITC, with the exception of those listed in Example 5, were purchased from Millipore-Sigma and used without further purification. Screening experiments were carried out in 25 μL in 96-well plate format on a Tecan Freedom Evo-150 liquid handler equipped with an 8-channel air displacement pipetting arm, disposable filter tips, robotic manipulator arm, and an EchoTherm RIC20 remote controlled heating/cooling dry bath (Torrey Pines Scientific). Liquid handler programs used for screening are available upon request. […]
Once screening of test fragments is complete, statistical tests are carried out to identify differences in modification rates of a given nucleotide. […] That is, if m1 modifications of a tested nucleotide were counted among n1 reads in sample 1 and m2 modifications were counted among n2 reads in sample 2, the tested null hypothesis predicts that among all the counted modifications (m1+m2), the proportion of modifications in sample 1 will be p1=n1/(n1+n2). […]

Setting [2] is: Table 4, fragment 5 analogs, pendant groups, ITC, read-out: Kd.
[3] abbreviates: Table 4, fragment 5 analogs, pendant groups, ITC.
The mark [4] stands for this setting: Table 8, linked analogs, read-out: Kd.

Turning to `NS(=O)(=O)c1ccc(Cl)nc1` [Compound S16], the Kd at TPP riboswitch RNA (setting [2]) came out at 1300 µM.

As for `COC(=O)c1ccc(C(F)(F)F)nc1` [Compound S9], the dissociation constant (Kd) result at TPP riboswitch RNA (setting [3]) was “no binding”.

Consider `O=C(CCCC(=O)Nc1ccc2nccnc2c1)NO` [KW-5-1, N^1-hydroxy-N^5-(quinoxalin-6-yl)glutaramide], for which, at TPP riboswitch RNA (setting [4]), the Kd worked out at 477 µM.

In the case of `NC(=O)c1ccc(Cl)nc1` [Compound S15], at TPP riboswitch RNA (setting [2]), the Kd is 1800 µM.

With `COC(=O)c1ccc(Br)nc1` [Compound S5], the Kd on TPP riboswitch RNA (setting [2]) was 440 µM.

As to `CN(C)C(=O)c1ccc(Cl)nc1` [Compound S18], the Kd result on TPP riboswitch RNA (setting [3]) is reported as “no binding”.

As for `O=C(O)c1csc2ccc(Cl)cc12` [Compound 29], in experiment [1], the “binding detected by SHAPE, second-round screen” value is recorded as “induced a very robust change in the SHAPE reactivity signal”.

Regarding `COC(=O)c1ccc(Oc2ccccc2)nc1` [Compound S10], the Kd result at TPP riboswitch RNA (setting [3]) was “no binding”.

Turning to `c1cc2[nH]cnc2cn1` [Compound 6], at TPP riboswitch RNA (Table 3, fragment 5 analogs, pyridine core modifications, ITC, read-out: Kd), the dissociation constant Kd turned out to be 265 µM.

Regarding `CCOc1ccc(C(=O)OC)cn1` [Compound S7], at TPP riboswitch RNA (setting [2]), the Kd turned out to be 1800 µM.

Turning to `CCOC(=O)c1ccc(Cl)nc1` [Compound S13], the dissociation constant (Kd) at TPP riboswitch RNA (setting [2]) is 600 µM.

Turning to `Cc1cccc2nccnc12` [Compound 23], the dissociation constant (Kd) on TPP riboswitch RNA (Table 2B, fragment 2 analogs, pendant groups, ITC, read-out: Kd) was 220 µM.

`O=C(CNc1ccc2nccnc2c1)NO` [KW-31-1, N-hydroxy-2-(quinoxalin-6-ylamino)acetamide]: the Kd at TPP riboswitch RNA (setting [4]) was 58.1 µM.

As to `COC(=O)c1cnc(Cl)c(Cl)c1` [Compound S11], the dissociation constant (Kd) at TPP riboswitch RNA (setting [2]) stood at 820 µM.

In the case of `Cc1cnccc1N1CCNCC1` [Compound 32], in the experiment on TPP riboswitch RNA, the “binding cooperativity with 2” value is on record as “clear, but modest, binding cooperativity”.

For `Cc1ncc(C[n+]2csc(CCOP(=O)([O-])OP(=O)(O)O)c2C)c(N)n1` [Compound 9, thiamine pyrophosphate, reference compound], the Kd on TPP riboswitch RNA (Table 1, SHAPE-detected fragment hits, ITC, read-out: Kd) was found to be 0.028 ± 0.002 µM.

As for `OCc1ccc(Cl)nc1` [Compound S14], the Kd on TPP riboswitch RNA (setting [2]) came out at 1300 µM.

In the case of `O=C(O)CCC(=O)Nc1ccc2nccnc2c1` [KW-16-1], the Kd at TPP riboswitch RNA (setting [4]) stood at 653 µM.

With `CCS(=O)(=O)c1ccc(Cl)nc1` [Compound S17], at TPP riboswitch RNA (setting [3]), the Kd entry is listed as “no binding”.

As to `COC(=O)c1ccc([N+](=O)[O-])nc1` [Compound S6], the Kd on TPP riboswitch RNA (setting [2]) is 390 µM.

In the case of `CN(C)CCN(C=O)Cc1ccc2nccnc2c1` [KW-79-1, N-(2-(dimethylamino)ethyl)-N-(quinoxalin-6-ylmethyl)formamide], the dissociation constant Kd on TPP riboswitch RNA (setting [4]) turned out to be 69.1 µM.

Consider `COC(=O)c1ccc(C)nc1` [Compound S8], for which the Kd on TPP riboswitch RNA (setting [2]) stood at 1100 µM.

For the compound `COC(=O)c1cnc(Cl)cc1Cl` [Compound S12], at TPP riboswitch RNA (setting [2]), the Kd came to 93 µM. For the same compound, the “fold higher affinity for the TPP riboswitch than fragment 5” value in the experiment on TPP riboswitch RNA (relative to fragment 5) is on record as “approximately threefold”.

For `c1cc(N2CCNCC2)ccn1` [Compound 31], in the experiment on TPP riboswitch RNA, the “binding cooperativity with 2” value was “clear, but modest, binding cooperativity”.

For the compound `O=C(CNc1cnccc1N1CCNCC1)Nc1ccc2nccnc2c1` [KW-29-1, 2-((4-(piperazin-1-yl)pyridin-3-yl)amino)-N-(quinoxalin-6-yl)acetamide], the dissociation constant Kd on TPP riboswitch RNA (setting [4]) worked out at 10.5 µM.

The values are drawn from patent US20240254107A1, “RNA-TARGETING LIGANDS, COMPOSITIONS THEREOF, AND METHODS OF MAKING AND USING THE SAME” (THE UNIVERSITY OF NORTH CAROLINA AT CHAPEL HILL, priority 2021, published 2024).
